# Reference: patent publication US20230159597A1 (priority 2020, published 2023)
# pIC50: −log10 of the molar value. [ ]: non-standard residue; d: D form. The star is where a group is joined. X1 = CC(C)CCC[C@@H](C)[C@H]1CC[C@H]2[C@@H]3CC=C4C[C@@H](OC(=O)C*)CC[C@]4(C)[C@H]3CC[C@]12C; PEG4 = NCCOCCOCCOCCOCCC(=O)O
# Legend:
# [1] = target: SARS CoV-2 glycoprotein (Severe acute respiratory syndrome coronavirus 2, UniProt P0DTC2); test: cell-based
# [2] = test system: SARS-CoV-2; assay type: cell-based
# [3] = test system: ZEBOV Mayinga
# [4] = test system: ZEBOV Gueckedou C07
# [5] = test system: Bundibugyo EBOV
molecule,measurement,setting,value
Ac-SLTQINTTLLNLEYEMKKLEEVVKKLEESYIDLKELGSG[PEG4]C(X1)-NH2 [MERS lipid-peptide],IC90,[1],200 nM
same,reduction in SARS-CoV-2 infection,[2],100%
CC[C@H](C)[C@H](NC(=O)CNC(=O)[C@H](CO)NC(=O)CNC(=O)[C@H](CCCNC(=N)N)NC(=O)[C@H](CCCNC(=N)N)NC(=O)[C@H](CCCNC(=N)N)NC(=O)[C@H](CCC(N)=O)NC(=O)[C@H](CCCNC(=N)N)NC(=O)[C@H](CCCNC(=N)N)NC(=O)[C@H](CCCCN)NC(=O)[C@H](CCCCN)NC(=O)[C@H](CCCNC(=N)N)NC(=O)CNC(=O)[C@H](Cc1ccc(O)cc1)NC(C)=O)C(=O)N[C@@H](CCC(=O)O)C(=O)N1CCC[C@H]1C(=O)N[C@@H](Cc1c[nH]cn1)C(=O)N[C@@H](CC(=O)O)C(=O)N[C@@H](Cc1c[nH]c2ccccc12)C(=O)N[C@H](C(=O)N[C@@H](CCCCN)C(=O)N[C@@H](CC(N)=O)C(=O)N[C@H](C(=O)N[C@H](C(=O)N[C@@H](CC(=O)O)C(=O)N[C@@H](CCCCN)C(=O)N[C@H](C(=O)N[C@@H](CC(=O)O)C(=O)N[C@@H](CCC(N)=O)C(=O)N[C@H](C(=O)N[C@H](C(=O)N[C@@H](Cc1c[nH]cn1)C(=O)N[C@@H](CC(=O)O)C(=O)N[C@@H](Cc1ccccc1)C(=O)N[C@H](C(=O)N[C@@H](CC(=O)O)C(=O)N[C@@H](CCCCN)C(=O)NCC(=O)N[C@@H](CO)C(=O)NCC(=O)N[C@@H](CO)C(=O)NCC(=O)N[C@@H](CSCC(=O)NCCOCCOCCOCCOCCC(=O)Oc1c(C)c(C)c2c(c1C)CC[C@@](C)(CCC[C@H](C)CCC[C@H](C)CCCC(C)C)O2)C(N)=O)C(C)C)[C@@H](C)CC)[C@@H](C)CC)[C@@H](C)CC)[C@@H](C)O)[C@@H](C)CC)[C@@H](C)O [TAT-EBO-PEG4-Toco],pIC50,[3],6.15
same,Max % inh,[3],96.9%
same,pIC50,[4],7.00
same,Max % inh,[4],100%
same,pIC50,[5],6.51
same,Max % inh,[5],100%
CC[C@H](C)[C@H](NC(=O)CNC(=O)[C@H](CO)NC(=O)CNC(=O)[C@H](CCCNC(=N)N)NC(=O)[C@H](CCCNC(=N)N)NC(=O)[C@H](CCCNC(=N)N)NC(=O)[C@H](CCC(N)=O)NC(=O)[C@H](CCCNC(=N)N)NC(=O)[C@H](CCCNC(=N)N)NC(=O)[C@H](CCCCN)NC(=O)[C@H](CCCCN)NC(=O)[C@H](CCCNC(=N)N)NC(=O)CNC(=O)[C@H](Cc1ccc(O)cc1)NC(C)=O)C(=O)N[C@@H](CCC(=O)O)C(=O)N1CCC[C@H]1C(=O)N[C@@H](Cc1c[nH]cn1)C(=O)N[C@@H](CC(=O)O)C(=O)N[C@@H](Cc1c[nH]c2ccccc12)C(=O)N[C@H](C(=O)N[C@@H](CCCCN)C(=O)N[C@@H](CC(N)=O)C(=O)N[C@H](C(=O)N[C@H](C(=O)N[C@@H](CC(=O)O)C(=O)N[C@@H](CCCCN)C(=O)N[C@H](C(=O)N[C@@H](CC(=O)O)C(=O)N[C@@H](CCC(N)=O)C(=O)N[C@H](C(=O)N[C@H](C(=O)N[C@@H](Cc1c[nH]cn1)C(=O)N[C@@H](CC(=O)O)C(=O)N[C@@H](Cc1ccccc1)C(=O)N[C@H](C(=O)N[C@@H](CC(=O)O)C(=O)N[C@@H](CCCCN)C(=O)NCC(=O)N[C@@H](CO)C(=O)NCC(=O)N[C@@H](CO)C(=O)NCC(=O)N[C@@H](CSCC(=O)NCCOCCOCCOCCOCCC(=O)O[C@H]1CC[C@@]2(C)C(=CC[C@H]3[C@@H]4CC[C@H]([C@H](C)CCCC(C)C)[C@@]4(C)CC[C@@H]32)C1)C(N)=O)C(C)C)[C@@H](C)CC)[C@@H](C)CC)[C@@H](C)CC)[C@@H](C)O)[C@@H](C)CC)[C@@H](C)O [TAT-EBO-PEG4-Chol],pIC50,[3],7.30
same,Max % inh,[3],97.9%
same,pIC50,[4],7.70
same,Max % inh,[4],97.5%
same,pIC50,[5],7.15
same,Max % inh,[5],98.5%
